Results on three compounds are retold here after patent publication US12728104B2, “Therapeutic methods for preventing tumor metastasis and tumor recurrence” (LUNELLA BIOTECH, INC., priority 2020, dated 2026).

In data set [1] the test system is CSCs in cell lines derived from 8 different cancer types. The conditions noted are these: cell lines from 8 cancer types incl. MCF7, T47D, MDA-MB-231, MCF10.DCIS.COM; cited from earlier work.
Another data set has as its system chick embryo. The data set is described as follows: Embryo tolerability assay (chick embryo toxicity). Type of data set: in vivo. As to conditions: for Alive / Dead: number of embryos. As to the method: a) Preparation of Chicken Embryos. […] At that moment (E9), the chorioallantoic membrane (CAM) was dropped down by drilling a small hole through the eggshell into the air sac, and a 1 cm^2 window was cut in the eggshell above the CAM (19-23).
e) Embryo Tolerability Assay: Before each administration, the treatment tolerability was evaluated by scoring the number of dead embryos.

The subject of a further data set is MDA-MB-231 metastasis. As to the kind of experiment: Metastasis assay, MDA-MB-231 cells in the CAM assay (qPCR for Human Alu sequences in lower CAM). The class given is in vivo. As to the method:
MDA-MB-231 cells and the CAM assay in chicken eggs were used to quantitatively measure spontaneous tumor mestastasis. An inoculum of 1×10^6 MDA-MB-231 cells was added onto the CAM of each egg (on day E9) and then eggs were then randomized into groups. On day E10, tumors were detectable and they were then treated daily for 8 days with vehicle alone (1% DMSO in PBS) or the four mitochondrial inhibitors. After 8 days of drug administration, the lower CAM was collected to evaluate the number of metastatic cells, as analyzed by qPCR with specific primers for Human Alu sequences. […] The same procedure may be used to evaluate the anti-metastasis and anti-recurrence effects of other mitochondrial inhibitors.
(§1) a) Preparation of Chicken Embryos. Fertilized White Leghorn eggs were incubated at 37.5° C. with 50% relative humidity for 9 days. At that moment (E9), the chorioallantoic membrane (CAM) was dropped down by drilling a small hole through the eggshell into the air sac, and a 1 cm^2 window was cut in the eggshell above the CAM (19-23).
b) Amplification and Grafting of Tumor Cells. The MDA-MB-231 tumor cell line was cultivated in DMEM medium supplemented with 10% FBS and 1% penicillin/streptomycin. On day E9, cells were detached with trypsin, washed with complete medium and suspended in graft medium. An inoculum of 1×10^6 cells was added onto the CAM of each egg (E9) and then eggs were randomized into groups (19-23).
d) Metastasis Assays. On day E18, a 1 cm^2 portion of the lower CAM was collected to evaluate the number of metastatic cells in 8 samples per group (n=8). Genomic DNA was extracted from the CAM (commercial kit) and analyzed by qPCR with specific primers for Human Alu sequences. Calculation of Cq for each sample, mean Cq and relative amounts of metastases for each group are directly managed by the Bio-Rad® CFX Maestro software. A one-way ANOVA analysis with post-tests was performed on all the data (19-23).
For orientation: Real-time PCR tracks product formation cycle by cycle.

The next data set deals with MCF7 cells. As to conditions: cited from earlier work.
Another data set concerns MDA-MB-231 tumor growth. The data set is described as follows: Tumor growth assay, MDA-MB-231 cells on the chorio-allantoic membrane (CAM) in chicken eggs. The class given is in vivo, human. The conditions noted are these: treated daily for 8 days. As to the method:
To experimentally evaluate their functional effects in vivo, the inventors used MDA-MB-231 cells and the well-established chorio-allantoic membrane (CAM) assay in chicken eggs, to quantitatively measure tumor growth and metastasis. An inoculum of 1×10^6 MDA-MB-231 cells was added onto the CAM of each egg (day E9) and then eggs were randomized into groups. On day E10, tumors were detectable and they were then treated daily for 8 days with vehicle alone (1% DMSO in PBS) or the three Mitoriboscin compounds. In parallel, the inventors also evaluated the activity of another mitochondrial inhibitor, namely butene-1,4-bis-triphenyl-phosphonium (Bis-TPP), which was identified as an inhibitor of 3D-mammosphere formation in MCF7 cells, with an IC-50 of less than 0.5 μM.
After 8 days of drug administration (on day E18), all tumors were weighed, and the lower CAM was collected to evaluate the number of metastatic cells, as analyzed by qPCR with specific primers for Human Alu sequences.
as §1
b) Amplification and Grafting of Tumor Cells. […]

The subject of a further data set is MDA-MB-231 cells. As to conditions: cited from earlier work.

“Also recorded” adds a separate entry of the source.

Consider `CC[C@H]1OC(=O)[C@H](C)[C@@H](O[C@H]2C[C@@](C)(OC)[C@@H](O)[C@H](C)O2)[C@H](C)[C@@H](O[C@@H]2O[C@H](C)C[C@H](N(C)C)[C@H]2O)[C@](C)(O)C[C@@H](C)CN(C)[C@H](C)[C@@H](O)[C@]1(C)O` [Azithromycin], for which the “inhibition of anchorage-independent propagation of CSCs” value in data set [1] is given as “effectively inhibit”.

With `O[C@@H]1[C@H](NCc2ccccc2)CCC[C@H]1Oc1ccccc1Oc1ccc(Cl)cc1` [23/G4], in the data set with chick embryo (0.5 mM), the “% Alive” value came out at 70%, the “% Dead” value was 30%, the Alive was determined as 7 and the Dead is on record as 3. In addition, in the data set with chick embryo (0.75 mM), the “% Alive” value came to 71.43%, the “% Dead” value worked out at 28.57%, the Alive stood at 10 and the Dead was 4. Further, in the data set on chick embryo (1 mM), the “% Alive” value came out at 80%, the “% Dead” value is on record as 20%, the Alive amounted to 12 and the Dead is recorded as 3. Further, in the data set on chick embryo (2 mM), the “% Alive” value was determined as 66.67%, the “% Dead” value was determined as 33.33%, the Alive was 10 and the Dead is reported as 5. Moreover, in the data set on MDA-MB-231 metastasis (concentration of 0.5 mM), the “effectiveness in CAM assay” value was “minimally effective”. For the same compound, the inhibition of metastasis in the data set on MDA-MB-231 metastasis (higher concentrations 0.75 mM, 1 mM, 2 mM, CAM assay) is reported as 70-75%. Also, the “inhibition of 3D-mammosphere formation, active concentration range” value in the data set with MCF7 cells is recorded as “low micro-molar range”. Besides, the “effect on MDA-MB-231 tumor growth” value in the data set with MDA-MB-231 tumor growth is “minor effects”. Also, in the data set on MDA-MB-231 cells, the “blocking of cell migration, active concentration range” value is recorded as “low micro-molar range”.

Turning to `C(=CC[P+](c1ccccc1)(c1ccccc1)c1ccccc1)C[P+](c1ccccc1)(c1ccccc1)c1ccccc1` [Bis-TPP, butene-1,4-bis-triphenyl-phosphonium], in the data set with chick embryo (0.5 mM), the “% Alive” value came out at 58.33%, the “% Dead” value stood at 41.67%, the Alive is 7 and the Dead is 5. The “effect on MDA-MB-231 cancer metastasis” value in the data set on MDA-MB-231 metastasis (CAM assay in chicken eggs, treated daily for 8 days) was “functional prevention of cancer metastasis; also recorded: significantly prevented metastasis”. The IC50 in the data set on MCF7 cells (read-out: IC-50, inhibition of 3D-mammosphere formation) was under 500 nM.
